For one data set, the system named is HepG2 cells. Kind of data set: Cytotoxic activity on HepG2 cells (CCK-8 assay). The format is cell-based. The conditions noted are these: Homo sapiens, read-out: IC50 over HepG2 cells. The method, then:
Human hepatocellular liver carcinoma cell line (HepG2) were obtained from Institute of Biochemistry and Cell Biology, Academy of Science (Shanghai, China) and were authenticated using the STR profiling method. HepG2 cells were cultured in MDEM (Gibco, Waltham, MA, USA) supplemented with 10% fetal bovine serum (FBS) and 1% penicillin-streptomycin bubbled with 5% CO2-enriched air at a temperature of 37 °C (Thermo Scientific, Waltham, MA, USA). The cytotoxic effect of compounds on HepG2 cells was assessed by using CCK-8 method. Briefly, HepG2 cells were cultured in 96-well plates at a density of 5 × 10^3 cells per well for 24 h. […] Three replicates were performed. The relative cell viability was expressed as percentage relative to the untreated cells. The inhibition ratio was calculated. The IC50 values were calculated using Logistic regression from three independent tests.

Another data set has as its system IL-2. Kind of data set: Serum IL-2 level in H22 tumor-bearing mice. The format is in vivo, Kunming mice. The conditions noted are these: mean ± SD. On the procedure:
(§1) Cyclophosphamide (CTX), used as the positive drug, was purchased from Sigma (St. Lousis, MO, USA. Detecting kits for IL-2, TNF-α, VEGF, AST, ALT, CRE and BUN were purchased from Nanjing Jiancheng Biotechnology Co. (Nanjing, China).
(§2) 24 h after the last administration, the whole blood was collected from the orbit. Serum was obtained from whole blood by centrifugation (3500 rpm, 15 min, 4 °C) and stored at −20 °C. The levels of IL-2, TNF-α, VEGF, AST, ALT, BUN and CRE in serum were determined in accordance with the procedures described in commercial kit instructions.

Data set [1] is described as follows: Hepatic and renal function (serum ALT, AST, CRE, BUN) in H22 tumor-bearing mice. On the procedure:
as §1, §2

The test system of the next data set is TNF-α. Description: Serum TNF-α level in H22 tumor-bearing mice. The format is in vivo, Kunming mice. As to conditions: mean ± SD. On the procedure:
as §1, §2

In another data set the test system is VEGF. Kind of data set: Serum VEGF level in H22 tumor-bearing mice. The format is in vivo, Kunming mice. The conditions noted are these: mean ± SD. On the procedure:
as §1, §2

The next data set has as its system H22 transplanted tumor. Kind of data set: Antitumor activity in H22 tumor-bearing mice (tumor weight, volume, inhibition rate, tumor histology). The format is in vivo, Kunming mice. The method, then: Hepatocellular carcinoma cell line (H22) was purchased from the Cell Bank of Type Culture Collection Committee of Chinese Academy of Sciences (Shanghai, China), and cultured in Dulbecco's modified eagle medium supplemented with 10% fetal calf serum and then cultured at 37 °C in 5% CO2. […] (Changchun, China). All the mice, given food and water ad libitum, were raised in temperature and humidity controlled (23 ± 2 °C, 50 ± 10% humidity) environment under a 12 h light/dark cycle. The mice were acclimatized for at least 1 week before use. The animal experiments were performed in accordance with the guidelines for the Care and Use of Laboratory Animals and approved by the ethics committee of School of Pharmaceutical Sciences, Jilin University, China. H22 cells, resuspended in normal saline with final concentration of 5 × 10^6 cells/mL, were injected into the abdominal cavity of mice under aseptic conditions. After 1 week, ascites tumor cells were extracted and dispersed with physiological saline to a concentration of 1 × 10^7 cells/mL.

Data set [2] can be described thus: Histopathological examination of liver and kidney (H&E staining). As to conditions: H22 tumor-bearing mice; CTX 20 mg/kg. The method, then: (§3) Mice were then killed by cervical dislocation after blood collected. The tumor, liver and kidney were rapidly separated, weighted and dissected for histopathological examination.
The tissue of tumor, liver and kidney from each mouse was quickly fixed in 10% neutral-buffered formalin for histopathology. The H&E staining of H22 solid tumor, liver and kidney tissue were embedded in paraffin and sectioned into sections with a thickness of 5 µm which were conducted following the manufacturer’s instructions in respective kit. Tumor, liver and kidney tissue sections were observed by light microscopy (Leica DM750, Solms, Germany) and recorded by photography (×400).

A short description of data set [3]: Body weight and organ indexes in H22 tumor-bearing mice. The method, then: Before administration every day, the tumor size and body weight were measured. When the tumor was larger than 20 mm in diameter, animals were euthanized according to the IACUC proposals.
as §3
The liver and kidney indexes were calculated as follows: organ index (mg/g) =average weight of organ/average body weight.

The conditions of data set [4]: rat, in vivo; cited from earlier work.
The conditions of data set [5]: cited from earlier work.
The mark [6] stands for this setting: HepG2, CCK-8, 48 h, mean of three experiments ±SD.
Where [7] appears, read: 25 mg/kg intragastrically once a day for 14 days.
The mark [8] stands for this setting: 50 mg/kg intragastrically once a day for 14 days.
Setting [9] is: serum, H22 tumor-bearing mice, 20 mg/kg.
[10] abbreviates: 20 mg/kg intragastrically once a day for 14 days.

Where two headings read alike, the source gives them in different places.

A word on the IC50: it is the midpoint of a concentration-inhibition curve. For the compound `CC(C)(O)[C@H]1CC[C@@](C)(C2CC[C@]3(C)C2[C@H](O)CC2[C@@]4(C)CC[C@H](OC(=O)C5CCCN5)C(C)(C)C4CC[C@]23C)O1` (stereo partly drawn) [2e, (20S, 24R)-Epoxy-3β-O-(L-prolyl)-dammarane-12β, 25-diol], the IC50 in the data set with HepG2 cells (setting [6]) is 11.3 ± 0.43 µM. In addition, the IL-2 level is on record as 111.13 ± 13.28 pg/mL in the data set with IL-2 (n = 6, 25 mg/kg); 136.86 ± 22.66 pg/mL with IL-2 (n = 6, 50 mg/kg); 174.11 ± 28.90 pg/mL in the data set with IL-2 (n = 6, 100 mg/kg). Also, the ALT in data set [1] (mouse, in vivo, 25 mg/kg) is reported as 43.62 ± 5.15 ^##, ** IU/L; in [1] (mouse, in vivo, 50 mg/kg) it was 42.31 ± 5.00 ^##, ** IU/L; in data set [1] (mouse, in vivo, 100 mg/kg), 35.37 ± 3.32 ^##, ** IU/L. Moreover, the AST in data set [1] (mouse, in vivo, 25 mg/kg) is recorded as 42.51 ± 5.22 ^##, ** IU/L; in data set [1] (mouse, in vivo, 50 mg/kg), 38.69 ± 6.43 ^##, ** IU/L; in data set [1] (mouse, in vivo, 100 mg/kg), 31.47 ± 4.48 ^#, ** IU/L. The CRE in data set [1] (mouse, in vivo, 25 mg/kg) is 31.17 ± 9.03 µmol/L; in data set [1] (mouse, in vivo, 50 mg/kg) it was 28.95 ± 9.16 µmol/L; in [1] (mouse, in vivo, 100 mg/kg) it was 26.93 ± 10.60 µmol/L. Moreover, the BUN in data set [1] (mouse, in vivo, 50 mg/kg) was 11.06 ± 2.16 mmol/L; in data set [1] (mouse, in vivo, 100 mg/kg), 10.32 ± 2.77 mmol/L. The TNF-α level in the data set on TNF-α (n = 6, 25 mg/kg) came to 287.01 ± 39.10 pg/mL; in the data set with TNF-α (n = 6, 50 mg/kg), 321.97 ± 55.57 pg/mL; in the data set with TNF-α (n = 6, 100 mg/kg), 358.35 ± 45.19 pg/mL. Besides, the VEGF level was 158.32 ± 15.97 ^##, * pg/mL in the data set with VEGF (n = 6, 25 mg/kg); 127.62 ± 17.46 ^##, ** pg/mL in the data set with VEGF (n = 6, 50 mg/kg); 114.67 ± 15.42 pg/mL with VEGF (n = 6, 100 mg/kg). The “Inhibitory Rate (tumor inhibition rate, TIR)” value is on record as 16.20% with H22 transplanted tumor (setting [7]); 24.76% with H22 transplanted tumor (setting [8]); 35.32% in the data set on H22 transplanted tumor (100 mg/kg intragastrically once a day for 14 days, listed as Compound 2e, 100 mg/kg); 35.32% in the data set with H22 transplanted tumor (100 mg/kg intragastrically once a day for 14 days, listed as compound 2e, 100 mg/kg). Also, the “Tumor Weight” value is recorded as 1.35 ± 0.26 g in the data set with H22 transplanted tumor (setting [7]), 1.21 ± 0.34 g in the data set with H22 transplanted tumor (setting [8]) and 1.04 ± 0.23 g in the data set with H22 transplanted tumor (100 mg/kg intragastrically once a day for 14 days). In addition, the “Effect on tumor volume compared to the model group” value in the data set on H22 transplanted tumor (50, 100 mg/kg, p < 0.05, p < 0.01) is on record as “significantly reduce”.

`O=P1(N(CCCl)CCCl)NCCCO1` (stereo not drawn) [Cyclophosphamide, reference compound]: the 50% inhibitory concentration (IC50) with HepG2 cells (HepG2, 48 h) is 9.18 ± 0.34 µM. Moreover, the “Liver and kidney cell morphology (H&E)” value in data set [2] is “many vacuoles and edema”. In the data set on IL-2 (n = 6, 20 mg/kg), this compound registered an IL-2 level of 110.52 ± 17.54 pg/mL. In addition, in [1] (setting [9]), the ALT is given as 50.61 ± 3.22 ^##, ** IU/L; the AST was 53.47 ± 5.04 ^##, ** IU/L; the BUN was 14.23 ± 2.38 ^##, * mmol/L; the CRE came out at 32.86 ± 7.74 µmol/L. Also, the TNF-α level with TNF-α (n = 6, 20 mg/kg) was 207.47 ± 23.37 ^##, ** pg/mL. For the same compound, in the data set with VEGF (n = 6, 20 mg/kg), the VEGF level came out at 103.43 ± 14.00 pg/mL. In the data set with H22 transplanted tumor (setting [10]), the “Inhibitory Rate (tumor inhibition rate, TIR)” value was found to be 49.69% and the “Tumor Weight” value is 0.81 ± 0.18 g. Moreover, the “Effect on tumor volume compared to the model group” value with H22 transplanted tumor (CTX 20 mg/kg, p < 0.01) is recorded as “significantly reduce”. In addition, in [3] (setting [10]), the “Body weight D14” value is reported as 32.76 ± 3.14 g, the “Increase of Body Weight” value is listed as 11.56 ± 3.23 g, the “Kidney Index” value is 13.27 ± 1.96 mg/g and the “Liver Index” value was 51.54 ± 7.69 mg/g. In addition, in data set [3] (D1, 20 mg/kg group), the “Body weight D1” value stood at 21.20 ± 1.71 g.

In the case of `CC(C)(O)C1CCC(C)(C2CCC3(C)C2C(O)CC2C4(C)CCC(O)C(C)(C)C4C(O)CC23C)O1` (stereo not drawn) [Ocotillol], the 50% inhibitory concentration (IC50) with HepG2 cells (setting [6]) is 92.7 ± 3.07 µM. Further, in data set [4], the absorption into blood result is “poor”, the systemic exposure entry is on record as “low” and the t1/2 entry is “long”. In data set [5], the “plasma protein binding rates” value is on record as “high”.

The values above are taken from publication PMC7913291, “Synthesis and Anti-Hepatocarcinoma Effect of Amino Acid Derivatives of Pyxinol and Ocotillol” (Molecules, 2021).
